In PubChem BioAssay AID330 (DTP/NCI, 2004):
“And” between values parts separate entries of the source, which are not always exact repeats. Equal values may be shown once. Inconclusive results and toxic doses are left out. How the source made its calls: active means survival T/C of 150% or more; inactive means T/C below 125% in these data.

Test system: P388 leukemia ip, CD2F1 mice, survival T/C
Assay: NCI In Vivo Anticancer Drug Screen. Data for tumor model P388 Leukemia (intraperitoneal) in CD2F1 (CDF1) mice
Settings: endpoint: median survival time, higher = longer survival
Summary of the method: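 Mice carrying the transplanted tumor received test compound or vehicle. Survival was recorded in each group, and the value is the treated-group measurement divided by that of the vehicle-treated control group.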

[1] = dose: 60.0 mg/kg/injection, schedule: Q01DX005 (ip), vehicle: saline with Tween-80
[2] = dose: 120.0 mg/kg/injection, schedule: Q01DX005 (ip), vehicle: saline with Tween-80
[3] = dose: 100.0 mg/kg/injection, schedule: Q04DX003 (ip), vehicle: saline with Tween-80
[4] = dose: 200.0 mg/kg/injection, schedule: Q04DX003 (ip), vehicle: saline with Tween-80
[5] = dose: 400.0 mg/kg/injection, schedule: Q04DX003 (ip), vehicle: saline with Tween-80
[6] = dose: 50.0 mg/kg/injection, schedule: Q01DX005 (ip), vehicle: saline with Tween-80
[7] = dose: 200.0 mg/kg/injection, schedule: Q01DX005 (ip), vehicle: saline with Tween-80
[8] = dose: 50.0 mg/kg/injection, schedule: Q01DX009 (ip), vehicle: Klucel (hydroxypropylcellulose) (HPC)
[9] = dose: 100.0 mg/kg/injection, schedule: Q01DX009 (ip), vehicle: Klucel (hydroxypropylcellulose) (HPC)
[10] = dose: 200.0 mg/kg/injection, schedule: Q01DX009 (ip), vehicle: Klucel (hydroxypropylcellulose) (HPC)
[11] = dose: 100.0 mg/kg/injection, schedule: Q01DX005 (ip), vehicle: saline with Tween-80
[12] = dose: 50.0 mg/kg/injection, schedule: Q01DX005 (ip), vehicle: Klucel + Tween-80
[13] = dose: 100.0 mg/kg/injection, schedule: Q01DX005 (ip), vehicle: Klucel + Tween-80
[14] = dose: 60.0 mg/kg/injection, schedule: Q01DX005 (ip), vehicle: saline
[15] = dose: 120.0 mg/kg/injection, schedule: Q01DX005 (ip), vehicle: saline
[16] = dose: 240.0 mg/kg/injection, schedule: Q01DX005 (ip), vehicle: saline

Measured: T/C

CCCCCCCCCc1cc(CN2CCCCC2)c(O)c(CN2CCCCC2)c1
inactive: dose: 12.5 mg/kg/injection, schedule: Q01DX009 (ip), vehicle: saline 112 % of control | dose: 25.0 mg/kg/injection, schedule: Q01DX009 (ip), vehicle: saline 108 % of control | dose: 50.0 mg/kg/injection, schedule: Q01DX009 (ip), vehicle: saline 102 % of control

CN(C)CCCNc1c2ccccc2nc2cccc([N+](=O)[O-])c12
inactive: dose: 0.03 mg/kg/injection, schedule: Q01DX009 (ip), vehicle: water 102 % of control and 108 % of control | dose: 0.06 mg/kg/injection, schedule: Q01DX009 (ip), vehicle: water 107 % of control and 115 % of control (2×) | dose: 0.13 mg/kg/injection, schedule: Q01DX009 (ip), vehicle: water 115 % of control and 120 % of control and 123 % of control | dose: 0.25 mg/kg/injection, schedule: Q01DX009 (ip), vehicle: water 107 % of control and 96 % of control | dose: 8.0 micrograms/kg/injection, schedule: Q01DX009 (ip), vehicle: saline 100 % of control | dose: 16.0 micrograms/kg/injection, schedule: Q01DX009 (ip), vehicle: saline 119 % of control | dose: 32.0 micrograms/kg/injection, schedule: Q01DX009 (ip), vehicle: saline 100 % of control | dose: 63.0 micrograms/kg/injection, schedule: Q01DX009 (ip), vehicle: saline 123 % of control | dose: 125.0 micrograms/kg/injection, schedule: Q01DX009 (ip), vehicle: saline 117 % of control | dose: 250.0 micrograms/kg/injection, schedule: Q01DX009 (ip), vehicle: saline 116 % of control

C[P+](C)(C)C
inactive: [1] 87 % of control | [2] 93 % of control

O=[N+]([O-])c1cccnc1Sc1ncccn1
inactive: [3] 100 % of control | [4] 100 % of control | [5] 100 % of control

CC(=O)c1c(O)c(C)c(O)c2c1OC1=Cc3c(c(C)nn3-c3ccccc3)C(=O)C12C (stereo not drawn)
inactive: dose: 6.25 mg/kg/injection, schedule: Q01DX009 (ip), vehicle: gum acacia 104 % of control and 108 % of control | dose: 12.5 mg/kg/injection, schedule: Q01DX009 (ip), vehicle: gum acacia 103 % of control and 105 % of control | dose: 25.0 mg/kg/injection, schedule: Q01DX009 (ip), vehicle: gum acacia 101 % of control and 105 % of control | dose: 50.0 mg/kg/injection, schedule: Q01DX009 (ip), vehicle: gum acacia 98 % of control and 101 % of control | dose: 100.0 mg/kg/injection, schedule: Q01DX009 (ip), vehicle: gum acacia 99 % of control and 93 % of control | dose: 200.0 mg/kg/injection, schedule: Q01DX009 (ip), vehicle: gum acacia 86 % of control and 90 % of control

ClCc1ccc(CCl)c(Cl)c1Cl
inactive: dose: 25.0 mg/kg/injection, schedule: Q01DX009 (ip), vehicle: saline with Tween-80 100 % of control | dose: 25.0 mg/kg/injection, schedule: Q04DX003 (ip), vehicle: saline with Tween-80 100 % of control | dose: 50.0 mg/kg/injection, schedule: Q01DX009 (ip), vehicle: saline with Tween-80 95 % of control | dose: 50.0 mg/kg/injection, schedule: Q04DX003 (ip), vehicle: saline with Tween-80 95 % of control | dose: 100.0 mg/kg/injection, schedule: Q01DX009 (ip), vehicle: saline with Tween-80 95 % of control | [3] 95 % of control

O=C(NCCCC1NC(=O)/C(=C(O)/C=C/C=C/c2ccccc2)C1=O)OCc1ccccc1 (stereo not drawn)
inactive: [6] 88 % of control | [7] 92 % of control

Cc1nc(-c2ccccc2)c2c(C)[nH]c(-c3ccccc3)c2n1
inactive: [8] 110 % of control | [9] 112 % of control | [10] 104 % of control

Cc1[nH]c(=O)[nH]c(=O)c1CCSSCCc1c(C)[nH]c(=O)[nH]c1=O
inactive: [6] 102 % of control | [11] 100 % of control | [7] 98 % of control

CCOC(=O)NC1CC2c3ccccc3C1c1ccccc12 (stereo not drawn)
inactive: [1] 101 % of control | [2] 101 % of control | dose: 240.0 mg/kg/injection, schedule: Q01DX005 (ip), vehicle: saline with Tween-80 107 % of control

CCC(C)C(=O)OC1C(=O)OC2CC3C(C)=CC(=O)C(O)C3(C)C3C4(O)OCC23C1C(C)C4O (stereo not drawn)
inactive: dose: 2.0 mg/kg/injection, schedule: Q01DX009 (ip), vehicle: saline 96 % of control

CCN(CC(O)CN(CC1CO1)c1ccccc1)c1ccccc1 (stereo not drawn)
inactive: dose: 100.0 mg/kg/injection, schedule: Q04DX002 (ip), vehicle: saline with Tween-80 100 % of control | dose: 200.0 mg/kg/injection, schedule: Q04DX002 (ip), vehicle: saline with Tween-80 94 % of control | dose: 400.0 mg/kg/injection, schedule: Q04DX002 (ip), vehicle: saline with Tween-80 101 % of control

Cc1ncn(-c2ccccc2)c(=O)c1N=Cc1ccccc1
inactive: [1] 86 % of control | [2] 87 % of control

CC(=O)N(C)N(Cc1ccc([N+](=O)[O-])cc1)C(C)=O
inactive: dose: 25.0 mg/kg/injection, schedule: Q01DX009 (ip), vehicle: other 95 % of control | dose: 50.0 mg/kg/injection, schedule: Q01DX009 (ip), vehicle: other 102 % of control | dose: 100.0 mg/kg/injection, schedule: Q01DX009 (ip), vehicle: other 93 % of control | dose: 200.0 mg/kg/injection, schedule: Q01DX009 (ip), vehicle: other 93 % of control | dose: 400.0 mg/kg/injection, schedule: Q01DX009 (ip), vehicle: other 89 % of control

c1ccc(C23CC2COP3(c2ccccc2)(c2ccccc2)c2ccccc2)cc1 (stereo not drawn)
inactive: dose: 6.25 mg/kg/injection, schedule: Q01DX009 (ip), vehicle: suspension in saline 90 % of control | dose: 12.5 mg/kg/injection, schedule: Q01DX009 (ip), vehicle: suspension in saline 98 % of control | dose: 25.0 mg/kg/injection, schedule: Q01DX009 (ip), vehicle: suspension in saline 93 % of control

N=c1nc(-c2ccccc2)nc2[nH]c3c4cccc5cccc(c3nc12)c54
inactive: [12] 90 % of control | [13] 99 % of control | dose: 200.0 mg/kg/injection, schedule: Q01DX005 (ip), vehicle: Klucel + Tween-80 99 % of control

Cc1cccc2c1/C(=C1/c3ccccc3C(=O)c3cccc(C)c31)c1ccccc1C2=O
inactive: [12] 87 % of control | [13] 90 % of control

CSC1=NN(C(C)=O)C(c2ccc3ccccc3n2)S1 (stereo not drawn)
inactive: dose: 50.0 mg/kg/injection, schedule: Q01DX005 (ip), vehicle: Klucel (hydroxypropylcellulose) (HPC) 95 % of control | dose: 100.0 mg/kg/injection, schedule: Q01DX005 (ip), vehicle: Klucel (hydroxypropylcellulose) (HPC) 89 % of control | dose: 200.0 mg/kg/injection, schedule: Q01DX005 (ip), vehicle: Klucel (hydroxypropylcellulose) (HPC) 99 % of control

Cc1cc(Cl)ccc1N1C(=O)[N+](C)(C)N=C1[O-]
inactive: dose: 100.0 mg/kg/injection, schedule: Q04DX003 (ip), vehicle: saline 103 % of control | dose: 200.0 mg/kg/injection, schedule: Q04DX003 (ip), vehicle: saline 103 % of control

Cc1nc2c([N+](=O)[O-])c(N3CCOCC3)c([N+](=O)[O-])cc2[nH]1
inactive: [3] 98 % of control | [4] 103 % of control | [5] 101 % of control

CCS[C@@H](C(O)C(O)C(O)C(O)CO)n1cnc2c(Cl)ncnc21 (stereo partly drawn)
inactive: [6] 98 % of control | [11] 102 % of control | [7] 96 % of control

CCN(CCO)CC(O)Cn1cnc2c(N)ncnc21 (stereo not drawn) (tested in a mixture with another compound)
inactive: [14] 97 % of control | [15] 100 % of control | [16] 95 % of control

COc1ccc(C(c2cc3c(cc2O)OCO3)N2CCN(C(c3ccc(OC)c(OC)c3)c3cc4c(cc3O)OCO4)CC2)cc1OC (stereo not drawn)
inactive: dose: 60.0 mg/kg/injection, schedule: Q01DX005 (ip), vehicle: Klucel (hydroxypropylcellulose) (HPC) 89 % of control | dose: 120.0 mg/kg/injection, schedule: Q01DX005 (ip), vehicle: Klucel (hydroxypropylcellulose) (HPC) 90 % of control | dose: 240.0 mg/kg/injection, schedule: Q01DX005 (ip), vehicle: Klucel (hydroxypropylcellulose) (HPC) 105 % of control

NCCOCCN
inactive: [14] 100 % of control | [15] 101 % of control | [16] 95 % of control

NC(=O)c1nc2ccccn2c1[N+](=O)[O-]
inactive: [8] 99 % of control | [9] 101 % of control | [10] 108 % of control
